Measured values: patent publication US8337835B2, “Use of an endogenous ligand for peroxisome proliferator activated receptor alpha to treat liver disorders” (priority 2009, dated 2012)

Tests used:
[1] = test system: PPARα-dependent genes ACO and CPT-1; assay: Portal vein infusion, hepatic ACO and CPT-1 mRNA by RT-PCR; assay type: in vivo, mouse; details: 10 mg/kg intraportal three times a day
Experimental: Total RNA was extracted from Hepa 1-6 cells and liver using Trizol (Invitrogen) and treated with DNase I (RNase-free, Roche Molecular Biochemicals). Reverse transcription to cDNA and real-time quantitative PCR were performed using previously published procedures and primer-probe sequences for ACO and CPT-1 (Chakravarthy et al., 2005). RT-PCR for ChPT1 and CEPT1 was performed using the following primer-probe sets: ChPT1 (Forward, 5′-[…]-3′ (SEQ ID NO: 3); Reverse, 5′-[…]-3′ (SEQ ID NO: 4); Probe, 5′-[…]-3′ (SEQ ID NO: 5)); CEPT1 (Forward, 5′-TGCTGGACGGTCCCTTCTC-3′ (SEQ ID NO: 6); Reverse, 5′-[…]-3′ (SEQ ID NO: 7); Probe, 5′-[…]-3′ (SEQ ID NO: 8)). RNA not subjected to reverse transcription was included in each assay as a negative control. […] Relative mRNA levels were calculated using both the comparative CT and standard curve methods normalized to ribosomal protein L32, an invariant internal control. […]
The objectives were achieved by portal vein infusion of 1-palmitoyl-2-oleoyl-sn-glycerol-3-phosphocholine (16:0/18:1-GPC) to rescue PPARα^−/− mice from fatty liver disease or hepatic steatosis, liver tissue extraction, RT-PCR gene expression analysis of the extracted liver tissue and lipid and triglyceride assessment of the extracted liver tissue. […] Fat staining of liver is shown in FIG. 7C and liver triglyceride quantified in FIG. 7D. […]

[2] = test system: PPARα-dependent genes (ACO and CPT-1) after CEPT1 knockdown; assay: Rescue of ACO and CPT-1 expression in Hepa 1-6 cells treated with CEPT1 siRNA; assay type: cell-based, mouse; details: 72 h CEPT1 siRNA, then 50 μM for 24 h
Experimental: The C57BL/6 mouse hepatoma cell line Hepa 1-6 (ATCC, CRL-1830) was expanded in DMEM with 10% fetal bovine serum. For experiments, cells were cultured to 50-60% confluence, washed twice with PBS, and the medium was changed to serum-free DMEM supplemented with the various types and concentrations of phosphatidylcholine (sonicated to homogeneity in PBS/1% ethanol/4% fatty acid-free BSA), Wy14,643 (dissolved in 80% PBS/20% DMSO), or vehicle-only solutions. 24 h later, cells were washed, RNA prepared, and ACO and CPT-1 expression levels were determined by quantitative RT-PCR (see FIG. 6). For siRNA experiments, 50-60% confluent cells were treated with siRNAs or their scrambled controls (all diluted in PBS) for 72 h. […]
Stealth™ siRNA oligonucleotides were used to inhibit the gene expression of mouse ChPT1 ([…]) (SEQ ID NO: 1) and CEPT1 ([…]) (SEQ ID NO: 2) were from Invitrogen (Carlsbad, Calif.). […] Expression of ACO and CPT-1 was also assessed 24 h after addition of 50 μM 16:0/18:1-GPC in a subset of Hepa 1-6 cells previously treated with CEPT1 siRNA. mRNA levels are normalized to control L32 ribosomal mRNA. […] FIGS. 6F-H show the binding of various peptide motifs to the purified PPARα (FIG. 6F), PPARδ (FIG. 6G), and PPARγ (FIG. 6H) LBD in the presence of 5 μM of the corresponding PPAR agonist or 16:0/18:1-GPC as measured by AlphaScreen assays. […]

With `CCCCCCCC/C=C\CCCCCCCC(=O)O[C@H](COC(=O)CCCCCCCCCCCCCCC)COP(=O)([O-])OCC[N+](C)(C)C` [16:0/18:1-GPC, 1-palmitoyl-2-oleoyl-sn-glycerol-3-phosphocholine] the “hepatic ACO and CPT-1 expression” value ([1]; PPARα-deficient mice) was “not in PPARα-deficient mice”, the “hepatic ACO and CPT-1 expression” value ([1]; control (C57/BL6) mice) was “increased” and the “rescue of decreased PPARα-dependent genes (ACO, CPT-1) after CEPT1 knockdown” value [2] was “rescued”.
